Experimental findings from patent publication US8093273B2, “Flavanoids and isoflavanoids for the prevention and treatment of cardiovascular diseases” (Resverlogix Corp., priority 2004, dated 2012) are described below.

In series [1] the test system is human ApoA-I promoter. As to the kind of experiment: ApoA-I promoter induction in HepG2 liver cells (pAI.474-Luc luciferase reporter). Format: cell-based. To be noted: average values at 15 μM, 48 hours incubation. In short, it runs like this:
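HepG2 stably transfected with pAI.474-Luc, starved 24 h in MEM + 0.5% FBS, then treated with compounds at final 0–100 μM for 48 h. Luciferase activity in lysates, normalized to Bradford protein.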
(A reporter such as luciferase makes a cellular process visible.)

A short description of series [2]: Caco-2 permeability. Format: in vitro ADME, human. The following applies: human, Caco-2. The text has this:
The Caco-2 cell drug transport model is widely used for screening compounds in drug discovery to assess intestinal transport and predict absorption rates.
(Caco-2 monolayers are a common model of the intestinal barrier.)

The subject of series [3] is hApoA-I transgenic mice. Put plainly: hApoA-I transgenic mice, oral gavage for 14 days. The format is in vivo. The following applies: Mus musculus, po, 336 h, relative to pretreatment, read-out: ApoA-I (% change); for change in vivo at 10 mg/kg: 10 mg/kg BID 14 days. The procedure, abridged: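 Male hApoA-I transgenic mice (7–8 weeks) dosed orally by gavage daily for 14 days, BID or SID, as suspensions at 5 mL/kg in 0.5% methylcellulose/1% Tween 80 or F-101; fenofibrate 100 mg/kg as positive control. After a 4 h fast on day 15, plasma ApoA-I, HDL-C, total cholesterol and triglycerides measured relative to pre-bleed-matched groups.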

Read-outs that look alike come from different tables or passages of the source.

A word on the Papp: it is the rate of passage across a membrane or cell layer, normalised by area and donor concentration. A higher Papp goes with fast passage.

Turning to `O=c1cc(-c2ccc(O)cc2)oc2ncccc12` [Example 34, 2-(4-Hydroxy-phenyl)-pyrano[2,3-b]pyridin-4-one], in series [1], the “ApoA-I Promoter Induction” value is “increased”. In series [2], this compound returned a Papp of 6.36 ×10⁻⁶ cm/s. For the same compound, the change in vivo at 3 mg/kg in series [3] (Table 6 first group, 3 mg/kg BID 14 days, Control 1 (0.5% MC & 1% Tween 80) 11.94) amounted to 18.9%. Besides, the change in vivo at 10 mg/kg in series [3] (Table 6 first group, Control 1 11.94) stood at 36.6%; in series [3] (Table 6 third group, Control 3 (F-101) (6.32)), 30.9%. Moreover, the change in vivo at 30 mg/kg in series [3] (Table 6 first group, 30 mg/kg BID 14 days, Control 1 11.94) turned out to be 47.5%.
